Experimental data as given in PMC9011347, “Small-Molecule Inhibitors Targeting Lipolysis in Human Adipocytes” (Journal of the American Chemical Society, 2022).

How the values were obtained:
Test in all cases: Off-target lipid hydrolase assay, Expi293 lysates, p-NPV substrate
Type in all cases: biochemical
Details in all cases: NG-497 100 µM, substrate pNPV
[1] = molecular target: T1, carboxylesterase 2 (CES2) (Homo sapiens, UniProt O00748)
T1 construct: made in house; host or cells: Expi293 cells, lysate
T1 sequence (O00748 27-559): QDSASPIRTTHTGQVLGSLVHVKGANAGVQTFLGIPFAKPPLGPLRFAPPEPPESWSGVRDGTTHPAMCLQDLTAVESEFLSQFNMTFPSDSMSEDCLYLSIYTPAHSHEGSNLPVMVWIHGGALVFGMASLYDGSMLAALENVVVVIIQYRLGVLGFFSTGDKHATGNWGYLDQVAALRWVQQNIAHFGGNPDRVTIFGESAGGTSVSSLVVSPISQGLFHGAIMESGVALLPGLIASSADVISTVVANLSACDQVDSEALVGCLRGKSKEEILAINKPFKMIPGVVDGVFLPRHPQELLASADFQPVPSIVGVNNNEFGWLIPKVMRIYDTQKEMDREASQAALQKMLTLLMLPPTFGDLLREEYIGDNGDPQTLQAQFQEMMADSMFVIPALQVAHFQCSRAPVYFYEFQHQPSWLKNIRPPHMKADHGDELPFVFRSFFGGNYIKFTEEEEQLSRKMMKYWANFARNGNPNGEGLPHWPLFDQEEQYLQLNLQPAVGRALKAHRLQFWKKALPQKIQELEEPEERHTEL
Protocol: (§1) Fig. S3: Investigation of off-target effects of NG-497 on structurally and functionally related lipid hydrolases. (a) PNPLA1-dependent formation of acylceramides was monitored in a cell-based assay in HEK293T cells. Experiments were performed in the presence or absence of NG-497 (40 µM) and the non-selective lipase inhibitor Orlistat (40 µM). Orlistat, but not NG-497, inhibited PNPLA1/CGI-58-dependent ω-O-acylceramide formation. (b-h) Enzymes were overexpressed in Expi293 cells and cell lysates were used as source of enzymatic activity. Cell lysates were incubated with the indicated substrates 1-oleoyl phosphatidylcholine (LPC), di-oleoyl phosphatidic acid (PA), di-octanoyl phosphatidylglycerol (PG), or para-nitrophenylvalerate (pNPV). Experiments were performed in the presence or absence of NG-497 (100 µM) and the formation of reaction products was monitored. Cell lysates of LacZ-transfected cells were used to detect basal cellular activity. As positive controls, enzymes were inactivated with lipase inhibitors Orlistat (40 µM), R-BEL (10 µM), KLH-45 (20 nM), HSLi (10 µM), or PMSF (10µM).
(§2) Data were calculated relative to the basal activity detected in LacZ-transfected controls. (i) Activity of purified human pancreatic lipase in the presence or absence of NG-497 (100 µM) and Orlistat (20 µM) using radiolabeled triolein as substrate. (j) Inhibition of LPL and HL by NG-497 (100 µM) was investigated in human post-heparin plasma using radiolabeled triolein as substrate.
(§3) LPL activity was inhibited using an anti-LPL antibody. All data are presented as mean ± S.D. Statistical significance was determined via ANOVA followed by Bonferroni post hoc test ( ***, p < 0.001).
(§4) (1 picture or pasted object on this page, not shown here)
(§5) Co-immunoprecipitation. […]
(§6) Analysis of toxicity in HepG2 hepatocytes. […] Release of LDH into the medium was analyzed using the Cytotoxicity Detection Kit PLUS (LDH) (MilliporeSigma) according to the manufacturer’s instructions. Cytotoxicity was calculated as relative LDH release as compared to fully lysed cells. […]

[2] = molecular target: T2, DDHD domain-containing protein 2 (DDHD2) (Homo sapiens, UniProt O94830)
T2 construct: made in house; host or cells: Expi293 cells, lysate
T2 sequence (O94830 whole entry, the tested form may be a part): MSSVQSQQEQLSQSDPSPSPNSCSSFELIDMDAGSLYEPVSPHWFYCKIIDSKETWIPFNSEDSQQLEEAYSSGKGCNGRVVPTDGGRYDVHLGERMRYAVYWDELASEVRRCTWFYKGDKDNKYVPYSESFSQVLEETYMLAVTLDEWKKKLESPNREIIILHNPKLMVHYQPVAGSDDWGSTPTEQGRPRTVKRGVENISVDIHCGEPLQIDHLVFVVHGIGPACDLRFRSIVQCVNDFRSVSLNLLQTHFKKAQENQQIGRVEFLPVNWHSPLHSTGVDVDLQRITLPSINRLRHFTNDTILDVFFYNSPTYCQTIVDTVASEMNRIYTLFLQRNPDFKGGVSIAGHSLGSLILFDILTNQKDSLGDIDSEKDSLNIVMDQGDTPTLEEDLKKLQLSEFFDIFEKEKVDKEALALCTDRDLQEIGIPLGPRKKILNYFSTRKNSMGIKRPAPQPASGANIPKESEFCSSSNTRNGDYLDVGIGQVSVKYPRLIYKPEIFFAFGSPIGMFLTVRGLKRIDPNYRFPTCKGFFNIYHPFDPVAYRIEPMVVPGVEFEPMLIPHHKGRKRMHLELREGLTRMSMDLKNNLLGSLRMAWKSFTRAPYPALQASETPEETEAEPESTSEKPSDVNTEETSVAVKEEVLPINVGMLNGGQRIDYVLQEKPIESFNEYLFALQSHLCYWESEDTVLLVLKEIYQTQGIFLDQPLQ
Protocol: as §1, §2, §3, §4, §5, §6

HSL = HSL (Homo sapiens, UniProt Q05469)
HSL, sequence (Q05469 302-1076 limits assumed): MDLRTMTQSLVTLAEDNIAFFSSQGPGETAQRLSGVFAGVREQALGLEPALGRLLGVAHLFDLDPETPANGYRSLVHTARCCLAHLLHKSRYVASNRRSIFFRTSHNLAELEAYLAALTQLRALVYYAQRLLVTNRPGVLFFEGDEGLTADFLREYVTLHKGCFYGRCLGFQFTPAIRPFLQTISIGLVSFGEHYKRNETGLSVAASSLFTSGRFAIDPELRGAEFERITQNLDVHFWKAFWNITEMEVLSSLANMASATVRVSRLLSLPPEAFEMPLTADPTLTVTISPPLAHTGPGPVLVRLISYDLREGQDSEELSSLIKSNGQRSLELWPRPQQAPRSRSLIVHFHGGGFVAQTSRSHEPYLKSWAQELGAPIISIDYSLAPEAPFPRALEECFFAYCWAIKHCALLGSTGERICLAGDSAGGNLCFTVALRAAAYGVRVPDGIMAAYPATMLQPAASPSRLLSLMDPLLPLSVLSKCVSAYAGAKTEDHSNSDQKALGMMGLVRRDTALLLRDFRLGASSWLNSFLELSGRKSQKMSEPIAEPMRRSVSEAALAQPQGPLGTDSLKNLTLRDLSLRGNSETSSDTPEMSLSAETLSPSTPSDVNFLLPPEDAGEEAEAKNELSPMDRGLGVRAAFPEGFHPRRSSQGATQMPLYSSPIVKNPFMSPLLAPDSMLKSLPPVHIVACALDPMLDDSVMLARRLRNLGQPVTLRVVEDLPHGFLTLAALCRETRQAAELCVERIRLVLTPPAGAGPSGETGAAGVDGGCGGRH
Protocol: as §1, §2, §3, §4, §5, §6

CCOc1ccc(-c2cc(OC)cc(C(=O)OC(C)C)n2)cc1 [NG-497]
did not observe inhibition: inhibition of CES2 [1] | inhibition of DDHD2 [2] | inhibition of HSL (HSL)
